Measured values as given in patent US8906829B2, “Synergistic algicidal compositions including hydrazone derivatives and copper” (Dow AgroSciences LLC, priority 2010, dated 2014).

Columns and labels:
[1] = test system: Synechocystis sp. strain 6803; test: Growth inhibition of Synechocystis by hydrazones and isolated metal-hydrazone complexes, BG-11 Cu minus medium (Example 12); assay type: cell-based; conditions: Synechocystis, Test Concn. 0.05 μg/ml, read-out: Hydrazone % Inhn.
Method: In vitro toxicity assays against the cyanobacterium (blue-green alga) Synechocystis sp. strain 6803 were conducted using BG-11 medium except that copper micronutrient, normally included as CuSO4.5H2O, was omitted. The medium, termed BG-11 Cu minus, was prepared by dissolving 1.5 g NaNO3, 40 mg K2HPO4, 6 mg citric acid, 1 mg Na2EDTA and 20 mg Na2CO3 in 1 liter of milli Q water and treating the solution with 0.5 g Chelex 100 resin (Bio-Rad Analytical grade, 50-100 mesh, sodium form, cat#142-2822) by stifling at room temperature for 1 h. 900 mL were decanted and 67.5 mg MgSO4.7H2O, 32.4 mg […], 5.4 mg ferric ammonium citrate and 0.9 mL trace metal mix A5 without copper (2.86 g H3BO3, 1.81 g MnCl2.4H2O, 222 mg ZnSO4.7H2O, 390 mg Na2MoO4.2H2O and Co(NO3)2.6H2O in 1 L Milli Q water) was added. The pH was adjusted to 7.1 and the medium was filter-sterilized. Medium containing copper (BG-11 Cu plus) was prepared by adding CuCl2.2H2O to the BG-11 Cu minus medium at 0.2 μM. Test compounds were dissolved in dimethylsulfoxide (DMSO) at 2 mg/mL then appropriate dilutions in BG-11 Cu minus and BG-11 Cu plus media were prepared in sterilized microcentrifuge tubes. 100 μL aliquots were dispensed into flat-bottomed 96-well microtiter plates. Synechocystis was maintained under 24 h of light on BG-11 agar plates at 27° C. A loopful of cells was added to 50 mL of BG-11 Cu minus growth medium and the culture was incubated with shaking at 200 rpm at 27° C. for 24 h. The culture (10 to 20 mL aliquot) was centrifuged in a bench centrifuge at 2400 rpm for 2 min. The resulting cell pellet was resuspended in 5 mL sterile milli Q water (which had been treated with Chelex 100 resin using 0.5 g resin per liter of water by stirring at room temperature for 1 h), and recentrifuged. The cells were resuspended in BG-11 Cu minus medium, and the suspension adjusted to 4×10^5 spores per mL. Microtiter plates containing compounds as described above were inoculated with 100 μL of this cell suspension and the plates incubated at 27° C. for 72 h before assessing algal growth by measuring light scattering in a NepheloStar plate reader. Growth inhibition was determined by comparing growth in the presence of test compound with growth in control wells lacking test compound. Hydrazones and their isolated metal complexes were compared with respect to their in vitro activity toward C. reinhardtii and the cyanobacterium (blue-green alga) Synechocystis sp. strain 6803. Metal complexes of hydrazones were prepared by precipitation from ethanol with various metal salts at 1:1, 2:1 or 3:1 molar ratios, as described in general by Ainscough, Brodie, Dobbs, Ranford, and Waters (Inorganica Chimica Acta 1998, 267, 27-38, which is expressly incorporated by reference herein). In vitro assays against Synechocystis were conducted as described in Example 11 using BG-11 Cu minus medium. Growth inhibition was determined by comparing growth in the presence of test compound with growth in control wells lacking test compound.

Q: With `O=C(N/N=C/c1cc(C(F)(F)F)ccc1O)c1ccccc1` [Compound 68] as the molecule, how does the melting point read?
A: 214 to 217 °C

Q: What about the inhibition of growth at 0.05 µg/mL [1] of the same molecule?
A: 16%
